This is an account of results in US10039843B2, “Paramagnetic solid lipid nanoparticles (pSLNs) containing metal amphiphilic complexes for MRI” (BRACCO IMAGING S.P.A., priority 2012, dated 2018).

A short description of the data set: Relaxivity values of some known compounds for MRI (Table I). In kind it is physicochemical. Conditions: 0.47 T, 25° C., pH 7; for r1p HSA 4%: HSA 4% in NaCl 0.9%. An excerpt: As mentioned above, pSLNs usually show very high relaxivity in physiological medium, higher than values typically found in non-derivatized hydrophilic gadolinium complexes, in particular when formulated in SLNs, as better detailed in the experimental part for some representative compounds. As an example, relaxivity values for some Gd(III)complexes are indicated below, where values measured in physiologic conditions refer to those in obtained HSA 4% in NaCl 0.9%.

For the compound `CC(O)CN1CCN(CC(=O)[O-])CCN(CC(=O)[O-])CCN(CC(=O)[O-])CC1.[Gd+3]` (stereo not drawn) [Gd-HP-DO3A, Gadoteridol[10-(2-hydroxyprop-1-yl) -1,4,7,10-tetraazacyclododecane-1,4,7-triacetate(3-)] gadolinium], the “r1p HSA 4%” value turned out to be 3.85 mM⁻¹ s⁻¹, the “r1p Human plasma (HP)” value was found to be 4.80 mM⁻¹ s⁻¹ and the “r1p Water” value was found to be 3.32 mM⁻¹ s⁻¹.

Take `C[NH2+]C[C@H](O)[C@@H](O)[C@H](O)[C@H](O)CO.O=C([O-])CN1CCN(CC(=O)[O-])CCN(CC(=O)[O-])CCN(CC(=O)[O-])CC1.[Gd+3]` [Gd-DOTA, Gadoterato meglumine [[1,4,7,10-tetraazacyclododecane-1,4,7,10-tetraacetate (4-)] gadolinate (1-)] meglumine]: the “r1p HSA 4%” value worked out at 4.11 mM⁻¹ s⁻¹, the “r1p Human plasma (HP)” value is 4.51 mM⁻¹ s⁻¹ and the “r1p Water” value stood at 3.61 mM⁻¹ s⁻¹.

Consider `O=C([O-])CN1CCN(CC(=O)[O-])CCN([C@H](CO)[C@H](O)CO)CCN(CC(=O)[O-])CC1.[Gd+3]` (racemic) [Gd-BT-DO3A, Gadobutrol], for which the “r1p HSA 4%” value worked out at 4.31 mM⁻¹ s⁻¹, the “r1p Human plasma (HP)” value was 5.76 mM⁻¹ s⁻¹ and the “r1p Water” value amounted to 3.75 mM⁻¹ s⁻¹.
